Experimental data taken from PubChem BioAssay AID270 (DTP/NCI, 2004).
“And” between values parts separate entries of the source, which are not always exact repeats. Equal values may be shown once. Records with an inconclusive call do not appear.

System: BDF1 mice, s.c. Lewis lung carcinoma, T/C %
Test: NCI In Vivo Anticancer Drug Screen. Data for tumor model Lewis Lung Carcinoma (subcutaneous) in B6D2F1 (BDF1) mice
Method in brief: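 Transplanted tumors grown in mice; compound vs vehicle dosing; endpoint survival or tumor size; ratio T/C.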

Row | SMILES | T/C (endpoint: median survival time, dose: 2.5 mg/kg/injection, schedule: Q01DX009 (ip), vehicle: saline with Tween-80, higher = longer survival) | T/C (endpoint: median survival time, dose: 2.5 mg/kg/injection, schedule: Q01DX009 (ip), vehicle: saline, higher = longer survival) | T/C (endpoint: median survival time, dose: 5.0 mg/kg/injection, schedule: Q01DX009 (ip), vehicle: saline with Tween-80, higher = longer survival) | T/C (endpoint: median survival time, dose: 5.0 mg/kg/injection, schedule: Q01DX009 (ip), vehicle: saline, higher = longer survival) | T/C (endpoint: median survival time, dose: 10.0 mg/kg/injection, schedule: Q01DX009 (ip), vehicle: saline, higher = longer survival) | T/C (endpoint: median survival time, dose: 13.0 mg/kg/injection, schedule: Q04DX004 (ip), vehicle: saline with Tween-80, higher = longer survival) | T/C (endpoint: median survival time, dose: 18.0 mg/kg/injection, schedule: Q04DX004 (ip), vehicle: saline with Tween-80, higher = longer survival) | T/C (endpoint: median survival time, dose: 20.0 mg/kg/injection, schedule: Q01DX009 (ip), vehicle: saline, higher = longer survival) | T/C (endpoint: median survival time, dose: 23.0 mg/kg/injection, schedule: Q04DX004 (ip), vehicle: saline with Tween-80, higher = longer survival) | T/C (endpoint: median survival time, dose: 25.0 mg/kg/injection, schedule: Q07DX002 (ip), vehicle: saline with Tween-80, higher = longer survival) | T/C (endpoint: median survival time, dose: 39.0 mg/kg/injection, schedule: Q07DX002 (ip), vehicle: saline with Tween-80, higher = longer survival) | T/C (endpoint: median tumor weight (est.), dose: 14.0 mg/kg/injection, schedule: Q01DX001 (ip), vehicle: saline with Tween-80, higher = larger tumour) | T/C (endpoint: median tumor weight (est.), dose: 27.0 mg/kg/injection, schedule: Q01DX001 (ip), vehicle: saline with Tween-80, higher = larger tumour) | T/C (endpoint: median survival time, dose: 6.25 mg/kg/injection, schedule: Q01DX009 (ip), vehicle: Klucel (hydroxypropylcellulose) (HPC), higher = longer survival) | T/C (endpoint: median survival time, dose: 12.5 mg/kg/injection, schedule: Q01DX009 (ip), vehicle: Klucel (hydroxypropylcellulose) (HPC), higher = longer survival) | T/C (endpoint: median survival time, dose: 25.0 mg/kg/injection, schedule: Q01DX009 (ip), vehicle: Klucel (hydroxypropylcellulose) (HPC), higher = longer survival) | T/C (endpoint: median survival time, dose: 50.0 mg/kg/injection, schedule: Q01DX009 (ip), vehicle: Klucel (hydroxypropylcellulose) (HPC), higher = longer survival) | T/C (endpoint: median survival time, dose: 100.0 mg/kg/injection, schedule: Q01DX009 (ip), vehicle: Klucel (hydroxypropylcellulose) (HPC), higher = longer survival) | T/C (endpoint: median survival time, dose: 200.0 mg/kg/injection, schedule: Q01DX009 (ip), vehicle: Klucel (hydroxypropylcellulose) (HPC), higher = longer survival)
1 | O=NN(CCF)C(=O)NC1CCSCC1 | 114 % of control | 103 % of control | 191 % of control | 113 % of control | 204 % of control | 279 % of control | 194 % of control and 345 % of control | 108 % of control | 122 % of control | 190 % of control and 381 % of control | 198 % of control | 53 % of control | 8 % of control |  |  |  |  |  | 
2 | O=S(=O)(O)O |  |  |  |  |  |  |  |  |  |  |  |  |  | 94 % of control and 97 % of control and 121 % of control | 88 % of control and 91 % of control and 94 % of control | 94 % of control and 102 % of control and 107 % of control | 70 % of control and 94 % of control | 35 % of control and 42 % of control | 30 % of control and 32 % of control
